# In patent US9198423B2, “Active compound combinations” (BAYER INTELLECTUAL PROPERTY GMBH, priority 2011, dated 2015):
# Columns and labels:
# Alternaria solani = assay: Alternaria test (tomatoes)/preventive; format: in vivo, Alternaria solani on tomatoes; settings: preventive spray, evaluated 3 days after inoculation
# Description: Alternaria Test (Tomatoes)/Preventive [table] To produce a suitable preparation of active compound, 1 part by weight of active compound is mixed with the stated amounts of solvent and emulsifier, and the concentrate is diluted with water to the desired concentration. To test for preventive activity, young plants are sprayed with the preparation of active compound at the stated rate of application. After the spray coating has dried on, the plants are inoculated with an aqueous spore suspension of Alternaria solani. The plants are then placed in an incubation cabinet at approximately 20° C. and a relative atmospheric humidity of 100%. The test is evaluated 3 days after the inoculation. 0% means an efficacy which corresponds to that of the untreated control while an efficacy of 100% means that no disease is observed.
# Venturia inaequalis = assay: Venturia test (apples)/preventive; format: in vivo, Venturia inaequalis on apples; settings: preventive spray, evaluated 10 days after inoculation
# Description: Venturia Test (Apples)/Preventive [table] To produce a suitable preparation of active compound, 1 part by weight of active compound is mixed with the stated amounts of solvent and emulsifier, and the concentrate is diluted with water to the desired concentration. To test for preventive activity, young plants are sprayed with the preparation of active compound at the stated rate of application. After the spray coating has dried on, the plants are inoculated with an aqueous conidia suspension of the causal agent of apple scab (Venturia inaequalis) and then remain for 1 day in an incubation cabinet at approximately 20° C. and a relative atmospheric humidity of 100%. The plants are then placed in a greenhouse at approximately 21° C. and a relative atmospheric humidity of approximately 90%. The test is evaluated 10 days after the inoculation. 0% means an efficacy which corresponds to that of the untreated control, while an efficacy of 100% means that no disease is observed.
Compound,Efficacy in % found (Alternaria solani; application rate 10 ppm a.i.),Efficacy in % found (Venturia inaequalis; application rate 10 ppm a.i.),Efficacy in % found (Alternaria solani; application rate 40 ppm a.i.),Efficacy in % found (Venturia inaequalis; application rate 40 ppm a.i.)
"OC(Cc1ccccc1Cl)(Cn1nc[nH]c1=S)C1(Cl)CC1 (stereo not shown) [(A) Prothioconazole, Prothioconazole]",50%,43%,–,–
"CC(C)NC(=O)N1CC(=O)N(c2cc(Cl)cc(Cl)c2)C1=O [(B) Iprodione, Iprodione]",–,–,70%,3%
